| Compound | melting point |
| --- | --- |
| CN1CCN(c2ccccc2C=C2SCCN(c3ccc(C(F)(F)F)cc3)C2=O)CC1.Cl.O.O.O (hydrate or solvate) | 128 to 134 °C |
| CN1CCN(c2ccccc2C=C2SCCN(Cc3ccccc3)C2=O)CC1 [Example 4, 4-Benzyl-2-[2-(4-methylpiperazin-1-yl)-benzylidene]-thiomorpholin-3-one] | 106 to 108 °C |
| CN1CCN(c2ccccc2C=C2SC(=O)N(c3ccc(C(F)(F)F)cc3)C2=O)CC1.Cl.O.O (hydrate or solvate) | 159 to 177 °C |
| CN1CCN(c2cccc(F)c2C=C2SCCN(c3ccc(Cl)c(Cl)c3)C2=O)CC1 [Example 11, 4-(3,4-Dichlorophenyl)-2-[2-fluoro-6-(4-methylpiperazin-1-yl)-benzylidene]-thiomorpholin-3-one] | 146 to 147 °C |
| CN1CCN(c2ccccc2C=C2SCCN(Cc3ccc(Cl)c(Cl)c3)C2=O)CC1.Cl.O.O (hydrate or solvate) | 90 to 115 °C |
| CN1CCN(c2ccccc2C=C2OCCN(c3ccc(Cl)c(Cl)c3)C2=O)CC1 [Example 12, 4-(3,4-Dichlorophenyl)-2-[2-(4-methylpiperazin-1-yl)-benzylidene]-morpholin-3-one] | 169 to 171 °C (dec.) |
| CN1CCN(c2ccccc2C=C2NC(=O)N(c3ccc(Cl)cc3)C2=O)CC1 [Example 2, 3-(4-Chlorophenyl)-5-[2-(4-methylpiperazin-1-yl)-benzylidene]-imidazolidine-2,4-dione] | 193 to 193.5 °C |
| CN1CCN(c2ccccc2C=C2SCCNC2=O)CC1 [Example 10, 2-[2-(4-Methylpiperazin-1-yl)-benzylidene]-thiomorpholin-3-one] | 133 to 135 °C |

From patent US6423708B1, “Aralkyl and aralkylidene heterocyclic lactams and imides” (Pfizer INC, priority 1996, dated 2002)
